Like-named read-outs stand apart in the source and are kept apart here.
Assays:
[1] = tested on: androgen-independent PC3 prostate cancer cells; test: Cell cycle analysis; format: cell-based, human; conditions: for cell cycle arrest and apoptosis: androgen-independent PC3 prostate cancer cells
Experimental: More specifically, cells in the logarithmic phase were initially seeded at a density of 1×10^6 in 100 mm^2 dishes. After treatment with various concentrations of test compounds for the indicated times, cells were trypsinized, washed with PBS, and fixed in 70% ethanol. The fixed cells were then treated with 50 μg/mL RNase and stained with 50 μg/mL propidium iodide at room temperature for 20 minutes. The DNA content was determined by BD FACS Calibur flow cytometry system (BD Biosciences). For each analysis, 10,000 cells were counted, and the percentage of cells in each phase was calculated using ModFit LT software (Verity Software House, Inc.).

[2] = tested on: LNCaP104-S prostate cancer cells; test: Two dimensional cell growth inhibitory assay (MTT): LNCaP104-S; conditions: Homo sapiens, 72 h, read-out: MTT IC50 ± SD
Experimental: (§5) For the two dimensional assay, cancel cells in the logarithmic phase were cultured in complete medium in 96-well plates at 37° C. with 5% CO2 for overnight incubation, and treated with various concentrations of test compounds for three generative times. Cells were then incubated with a serum free medium containing 3-(4,5-dimethylthiazol-2-yl)-2,5-diphenyltetrazolium bromide (MTT) at a final concentration of 0.5 mg/mM for four hours. MTT was converted to formazan by metabolically viable cells. Formazan was then solublized in 50% DMF solution containing 20% SDS at 37° C. overnight. Absorbance was measured at 570 nm using a spectramax M5 microplate reader (Molecular Devices, UK).

[3] = tested on: human PC3 prostate cancer cells xenograft; test: In vivo antitumor activity assay, PC3 xenograft
Text: The antitumor effect of the two test compounds were examined in mice xenografted with human PC3 prostate cancer cells or HCT116 colorectal cells.
Five million PC3 cells were subcutaneously inoculated into specific pathogen-free male athymic mice (strain BALB/cAnN.Cg-Foxn1nu/CrlNarl) from the National Laboratory Animal Center, Taiwan. Mice were subsequently fed under specific pathogen-free conditions and provided with sterile water and food. When the tumor volume reached 150 to 200 mm^3, mice were assigned to groups randomly and treated with vehicle control or Compound 7 or 5b at 25/50/100 mg/kg. The compound was administered once a day, 5 days/week for 2 weeks (n=6) by oral administration. Tumor volume and body weight change were measured twice a week. At the end of the experiments (day 25 after first dosing), animals were euthanized in a CO2-containing chamber, and the tumors were collected and fixed in formaldehyde. The terminal deoxynucleotidyl transferase-mediated dUTP nick end labeling assay (TUNEL) was conducted for apoptosis detection. Tumor tissue sections were analyzed using a FITC In Situ Cell death detection kit (Roche) and fluorescence microscopy. Tissue treated with DNase was used as the positive control. Green fluorescence labeled nucleus indicates the induction of DNA fragmentation.

[4] = tested on: LNCaP104-R1 prostate cancer cells; test: Three dimensional cell growth inhibitory assay (cellular spheres, MTT): LNCaP104-R1; format: cell-based; conditions: Homo sapiens; 3D cellular sphere culture, LNCaP104-R1 (androgen-independent), 72 hours; read-out: MTT IC50 ± SD
Experimental: (§1) For the three dimensional assay, cells in the logarithmic phase were cultured in 50% Matrigel-containing complete medium in 96-well plates at 37° C. with 5% CO2 for five days incubation, and treated with appropriate concentrations of test compounds for three generative times. Images of spheroids were taken under a microscope, and spheroid cell survival was determined by MTT assays.
(§2) The cells (in the 2D culture) and the cellular spheres (in the 3D culture) were treated with test compounds for 72 hours, and then subjected to the MTT colorimetric assay. Each value represents the mean of three independent experiments. Cellular spheres formed in semi-solid and drug effect on cellular spheres were examined using phase-contrast light microscopy.

[5] = tested on: KB cell line (oral carcinoma); test: IC50 in human cancer cell lines (inhibiting HDAC): KB
[6] = tested on: H460 (non-small-cell lung carcinoma); test: IC50 in human cancer cell lines (inhibiting HDAC): H460
[7] = tested on: histone and α-tubulin acetylation in PC3 cells; test: Western blot: acetylation in PC3 cells; format: cell-based, human; conditions: concentration-dependent
Experimental: (§3) More specifically, cells in the logarithmic phase were initially seeded at a density of 1×10^6 in 100 mm^2 dishes. […] Briefly, cells were lysed with the cell lysis reagent CelLytic™ M (Sigma-Aldrich) containing 1 mM DTT, 1 mM PMSF and protease inhibitors for whole-cell lysate preparation. Equal amounts of lysate (on a protein basis) were then differentiated using the SDS-PAGE, blotted on PVDF membranes, conjugated with various specific primary antibodies, and then probed with appropriate secondary antibodies. The immunoreactive bands were detected using the ECL method and visualized on Kodak Bio-MAX MR film.
(§4) Proteins from cells were extracted and subjected to the western blotting analysis. β-Actin was used as an internal control. The deacetylase enzyme assay was based on a homogeneous fluorescence release assay. […] After fluorophore from the deacetylated substrates, fluorescent signal was detected.

[8] = tested on: LNCaP104-S prostate cancer cells; test: Three dimensional cell growth inhibitory assay (cellular spheres, MTT): LNCaP104-S; format: cell-based; conditions: Homo sapiens; 3D cellular sphere culture, LNCaP104-S (androgen-dependent), 72 hours; read-out: MTT IC50 ± SD
Experimental: as §1, §2

[9] = tested on: HONE-1 (nasopharyngeal carcinoma); test: IC50 in human cancer cell lines (inhibiting HDAC): HONE-1
[10] = tested on: HT-29 (colorectal carcinoma); test: IC50 in human cancer cell lines (inhibiting HDAC): HT-29
[11] = tested on: PC3 prostate cancer cells; test: Three dimensional cell growth inhibitory assay (cellular spheres, MTT, microscopy): PC3; format: cell-based, human; conditions: for IC50: Homo sapiens
Experimental: as §1, §2
More specifically, cellular spheres formed in semi-solid and drug effect on cellular spheres were examined using phase-contrast light microscopy. 3D structures of cells were analyzed using 4× magnification, 10× magnification, and 20× magnification.

[12] = tested on: Du145 prostate cancer cells; test: Two dimensional cell growth inhibitory assay (MTT): Du145; conditions: Homo sapiens, DU-145, 72 h, read-out: MTT IC50 ± SD
Experimental: as §5

[13] = tested on: LNCaP104-R2 prostate cancer cells; test: Two dimensional cell growth inhibitory assay (MTT): LNCaP104-R2; conditions: Homo sapiens, 72 h, read-out: MTT IC50 ± SD
Experimental: as §5

[14] = tested on: LNCaP104-R1 prostate cancer cells; test: Two dimensional cell growth inhibitory assay (MTT): LNCaP104-R1; conditions: Homo sapiens, 72 h, read-out: MTT IC50 ± SD
Experimental: as §5

[15] = tested on: PC3 prostate cancer cells; test: Two dimensional cell growth inhibitory assay (MTT): PC3; conditions: Homo sapiens
Experimental: as §5

PC3 (prostate carcinoma) = test: IC50 in human cancer cell lines (inhibiting HDAC): PC3
[16] = tested on: histone and α-tubulin acetylation in human BJAB B cell lymphoma; test: Western blot: acetylation in BJAB cells; format: cell-based
Experimental: as §3, §4

O=C(/C=C/c1cccc(S(=O)(=O)n2ccc3cccnc32)c1)NO [Compound 7, (E)-3-(3-(1H-Pyrrolo[2,3-b]pyridin-1-ylsulfonyl)phenyl)-N-hydroxyacrylamide]
cell cycle arrest and apoptosis [1]: induced cell cycle arrest and apoptosis
IC50 [2]: 1980 ± 100 nM
inhibition of human PC3 xenograft growth ([3]; 25 mg/kg oral, day 25 after the first dosing): about 50%
inhibition of human PC3 xenograft growth ([3]; 50 mg/kg oral, day 25 after the first dosing): about 50%
body weight change ([3]; PC3 xenograft mice, 25 and 50 mg/kg oral): without causing much body weight change
IC50 [4]: 2450 ± 150 nM
IC50 ([5]; read-out: IC50, inhibiting HDAC in human cancer cell lines, oral carcinoma): 760 ± 230 nM
IC50 ([6]; NCI-H460, read-out: IC50, inhibiting HDAC in human cancer cell lines): 570 ± 10 nM
histone and α-tubulin acetylation [7]: induced histone and α-tubulin acetylation
IC50 [8]: 3210 ± 150 nM
IC50 ([9]; HONE1, read-out: IC50, inhibiting HDAC in human cancer cell lines): 1200 ± 310 nM
IC50 ([10]; HT-29, read-out: IC50, inhibiting HDAC in human cancer cell lines): 1240 ± 400 nM
effect on spheroid structure of PC3 tumors ([11]; 3D culture, phase-contrast light microscopy): disrupted the spheroid structure of PC3 tumors in a concentration-dependent manner
IC50 ([11]; read-out: 3D Culture): 6380 ± 160 nM
cytotoxic / anti-proliferative activity in 3D versus 2D culture ([11]; human prostate carcinoma cells, 2D and 3D culture): potent in both a 3D spheroid culture and a 2D culture
IC50 [12]: 1220 ± 50 nM
IC50 [13]: 2090 ± 110 nM
IC50 [14]: 1150 ± 30 nM
IC50 ([15]; read-out: 2D Culture): 2990 ± 170 nM
IC50 (PC3 (prostate carcinoma); read-out: IC50, inhibiting HDAC in human cancer cell lines): 1630 ± 410 nM

COc1ccc(S(=O)(=O)N2CCc3cc(/C=C/C(=O)NO)cnc32)cc1 [Compound 5b, (E)-N-hydroxy-3-(1-(4-methoxyphenylsulfonyl)-2,3-dihydro-1H-pyrrolo[2,3-b]pyridin-5-yl)acrylamide]
p21 up-regulation [1]: induced p21 up-regulation
cell cycle arrest and apoptosis [1]: induced cell cycle arrest and apoptosis
IC50 [2]: 150 ± 30 nM
inhibition of human PC3 xenograft growth ([3]; 50 mg/kg oral, day 29 after the first dosing): about 70%
inhibition of human PC3 xenograft growth ([3]; 100 mg/kg oral): completely inhibited
tumor regression ([3]; PC3 xenograft, 100 mg/kg oral): achieved tumor regression from day 8 to day 29
IC50 [4]: 150 to 625 nM
IC50 ([5]; Homo sapiens, read-out: IC50 ± SD against human cancer cell lines, KB, oral carcinoma): 86.6 ± 17.1 nM
IC50 ([6]; NCI-H460, read-out: IC50 ± SD against human cancer cell lines): 112 ± 9.5 nM
histone and α-tubulin acetylation [7]: induced histone and α-tubulin acetylation
IC50 [8]: 230 ± 30 nM
IC50 ([9]; HONE1, read-out: IC50 ± SD against human cancer cell lines): 447 ± 45.2 nM
IC50 ([10]; HT-29, read-out: IC50 ± SD against human cancer cell lines): 85.4 ± 9.8 nM
IC50 ([11]; 3D cellular sphere culture, PC3, 72 hours, read-out: MTT IC50 ± SD): 410 ± 60 nM
IC50 ([11]; Table 6, cell line not given, read-out: IC50 value 3D Culture): 410 ± 60 nM
histone and α-tubulin acetylation [16]: induced histone and α-tubulin acetylation
IC50 [12]: 90 ± 30 nM
IC50 [13]: 180 ± 70 nM
IC50 [14]: 100 ± 40 nM
IC50 ([15]; 72 h, read-out: MTT IC50 ± SD): 170 ± 40 nM
IC50 ([15]; read-out: IC50 value 2D Culture): 170 ± 40 nM
IC50 (PC3 (prostate carcinoma); read-out: IC50 ± SD against human cancer cell lines): 170 ± 40 nM
